Results as given in patent publication US20250011288A1 (BRISTOL-MYERS SQUIBB COMPANY, priority 2021, published 2025).

Biological target: T1, human RXFP1 (Homo sapiens, UniProt Q9HBX9)
T1 construct: expressed in transfected cells
T1 sequence (Q9HBX9 1-757): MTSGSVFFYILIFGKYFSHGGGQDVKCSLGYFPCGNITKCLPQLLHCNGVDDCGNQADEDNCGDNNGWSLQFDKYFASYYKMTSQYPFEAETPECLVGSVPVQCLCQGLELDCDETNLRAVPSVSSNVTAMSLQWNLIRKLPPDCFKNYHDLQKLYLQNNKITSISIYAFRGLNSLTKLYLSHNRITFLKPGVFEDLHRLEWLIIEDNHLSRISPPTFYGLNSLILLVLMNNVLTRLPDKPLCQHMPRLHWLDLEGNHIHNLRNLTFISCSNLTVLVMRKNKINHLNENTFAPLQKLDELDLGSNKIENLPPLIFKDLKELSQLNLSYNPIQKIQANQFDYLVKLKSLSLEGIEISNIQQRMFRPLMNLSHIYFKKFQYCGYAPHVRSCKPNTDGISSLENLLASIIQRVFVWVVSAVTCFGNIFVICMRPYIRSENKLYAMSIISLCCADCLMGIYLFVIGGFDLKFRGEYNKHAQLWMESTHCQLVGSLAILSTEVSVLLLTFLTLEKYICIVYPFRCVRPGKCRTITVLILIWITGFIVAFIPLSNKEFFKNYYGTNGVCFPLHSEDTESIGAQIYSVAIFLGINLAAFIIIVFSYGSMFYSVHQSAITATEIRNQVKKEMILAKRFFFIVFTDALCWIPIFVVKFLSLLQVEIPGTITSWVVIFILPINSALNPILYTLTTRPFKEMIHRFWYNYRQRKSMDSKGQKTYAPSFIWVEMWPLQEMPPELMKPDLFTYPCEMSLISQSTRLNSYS
Experiment: human RXFP1 (hRXFP1) HEK293 cAMP assay (HTRF)
Type: cell-based
Conditions: HEK293 cells stably expressing human RXFP1, 30 min at room temperature
Outline: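 HEK293 cells stably expressing human RXFP1 (1500 cells/well) in HBSS/20 mM HEPES/0.05% BSA/0.5 mM IBMX, treated with compound (0.010 nM–50 µM final, 2% DMSO) for 30 min at room temperature. Intracellular cAMP read by HTRF; potency from 4-parameter logistic fit of cAMP versus concentration.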

| Compound | EC50 [nM] |
| --- | --- |
| COc1ncc(-c2cc([C@H](OC(=O)N3CC4(COC4)C3)C(F)(F)F)ccc2F)cc1C(=O)N[C@@H]1C2CCC(/C2=C/C2CC2)[C@@H]1C(=O)Nc1ccc(F)c(C(F)(F)F)c1 (stereo partly drawn) [Example 184, (1S)-1-[3-(5-{[(2R,3S,7Z)-7-(cyclopropyl-methylidene)-3-{[4-fluoro-3-(trifluoromethyl)phenyl]carbamoyl}bicyclo[2.2.1]heptan-2-yl]carbamoyl}-6-methoxypyridin-3-yl)-4-fluorophenyl]-2,2,2-trifluoroethyl 2-oxa-6-azaspiro[3.3] heptane-6-carboxylate] | 4.8 |
| COc1ncc(-c2cc([C@H](OC(=O)NC3CCOCC3)C(F)(F)F)ccc2F)cc1C(=O)N[C@@H]1C2CCC(/C2=C/C2CC2)[C@@H]1C(=O)Nc1ccc(F)c(C(F)(F)F)c1 (stereo partly drawn) [Example 185, (1S)-1-[3-(5-{[(2R,3S,7Z)-7-(cyclopropyl-methylidene)-3-{[4-fluoro-3-(trifluoromethyl)phenyl]carbamoyl}bicyclo[2.2.1]heptan-2-yl]carbamoyl}-6-methoxypyridin-3-yl)-4-fluorophenyl]-2,2,2-trifluoroethyl N-(oxan-4-yl)carbamate] | 2.5 |
| COc1ncc(-c2cnc3n2CC(O)CC3)cc1C(=O)N[C@H]1[C@@H](C(=O)Nc2ccc(F)c(C(F)(F)F)c2)[C@H]2CC[C@@H]1/C2=C\C1CC1 (stereo partly drawn) [Example 102, N-((1R,2R,3S,4R,Z)-7-(cyclopropyl-methylene)-3-((4-fluoro-3-(trifluoromethyl)phenyl)carbamoyl)bicyclo[2.2.1]heptan-2-yl)-5-(6-hydroxy-5,6,7,8-tetrahydroimidazo [1,2-a]pyridin-3-yl)-2-methoxynicotinamide] | 2.5 |
| COc1ncc(C2=NOC3CC(C(OC(=O)Nc4ccccc4)C(F)(F)F)CC23)cc1C(=O)N[C@H]1[C@@H](C(=O)Nc2ccc(F)c(C(F)(F)F)c2)[C@H]2CC[C@@H]1/C2=C\C1CCCC1 (stereo partly drawn) [Example 174, 1-[3-(5-{[(1R,2R,3S,4R, 7Z)-7-(cyclopentyl-methylidene)-3-{[4-fluoro-3-(trifluoromethyl)phenyl]carbamoyl}bicyclo[2.2.1]heptan-2-yl]carbamoyl}-6-methoxypyridin-3-yl)-3aH,4H,5H,6H, 6aH-cyclopenta[d][1,2]oxazol-5-yl]-2,2,2-trifluoroethyl N-phenylcarbamate] | 1.9 |
| CC1(C)Cc2cc(C3=NOC4CC(O)(C(F)(F)F)CC34)cc(C(=O)N[C@@H]3C4CCC(/C4=C/C4CCCC4)[C@@H]3C(=O)Nc3ccc(F)c(C(F)(F)F)c3)c2O1 (single isomer, unassigned) [Example 142] | 2.2 |
| COc1ncc(C2=NOC3CC(C(OC(=O)Nc4ccccc4)C4CC4)CC23)cc1C(=O)N[C@@H]1C2CCC(/C2=C/C2CCCC2)[C@@H]1C(=O)Nc1ccc(F)c(C(F)(F)F)c1 (stereo partly drawn) [Example 162, [3-(5-{[(2R,3S,7Z)-7-(cyclopentyl-methylidene)-3-{[4-fluoro-3-(trifluoromethyl)phenyl]carbamoyl}bicyclo[2.2.1]heptan-2-yl]carbamoyl}-6-methoxypyridin-3-yl)-3aH,4H,5H,6H, 6aH-cyclopenta[d][1,2]oxazol-5-yl](cyclopropyl) methyl N-phenylcarbamate] | 4.6 |
| COc1ncc(C2=NOC3CC(C(O)C(F)(F)F)CC23)cc1C(=O)N[C@H]1[C@@H](C(=O)N[C@H](C)C2(C)CC2)[C@H]2CC[C@@H]1/C2=C\C1CC(F)(F)C1 (stereo partly drawn) [Example 170, N-[(1R,2R,3S,4R, 7Z)-7-[(3,3-difluorocyclobutyl)methylidene]-3-{[(1R)-1-(1-methylcyclo-propyl)ethyl]carbamoyl}bicyclo[2.2.1]heptan-2-yl]-2-methoxy-5-[5-(2,2,2-trifluoro-1-hydroxyethyl)-3aH,4H,5H,6H, 6aH-cyclopenta[d] [1,2]oxazol-3-yl]pyridine-3-carboxamide] | 3.3 |
| COc1ncc(C2=NOC3CC(CO)CC23)cc1C(=O)N[C@H]1[C@@H](C(=O)N[C@H](C)C2(C)CC2(F)F)[C@H]2CC[C@@H]1/C2=C\C(F)(F)F (stereo partly drawn) [Example 116, N-((1R,2R,3S,4R,Z)-3-(((1R)-1-(2,2-difluoro-1-methylcyclopropyl)ethyl)carbamoyl)-7-(2,2,2-trifluoroethylidene)bicyclo[2.2.1]heptan-2-yl)-5-(5-(hydroxymethyl)-3a,5,6,6a-tetrahydro-4H-cyclopenta[d]isoxazol-3-yl)-2-methoxynicotinamide] | 2.7 |
| COc1ncc(C2=NOC3CC(CO)CC23)cc1C(=O)N[C@H]1[C@@H](C(=O)N[C@H](C)C2(C)CC2(F)F)[C@H]2CC[C@@H]1/C2=C\C(F)(F)F (stereo partly drawn) [Example 118, N-((1R,2R,3S,4R,Z)-3-(((1R)-1-(2,2-difluoro-1-methylcyclopropyl)ethyl)carbamoyl)-7-(2,2,2-trifluoroethylidene)bicyclo[2.2.1]heptan-2-yl)-5-(5-(hydroxymethyl)-3a,5,6,6a-tetrahydro-4H-cyclopenta[d]isoxazol-3-yl)-2-methoxynicotinamide] | 4 |
| COc1ncc(C2=NO[C@@H]3C[C@H](CO)CN23)cc1C(=O)N[C@@H]1C2CCC(/C2=C/C2CCCC2)[C@@H]1C(=O)Nc1ccc(F)c(C(F)(F)F)c1 (stereo partly drawn) [Example 133, N-((1R,2R,3S,4R,Z)-7-(cyclopentyl-methylene)-3-((4-fluoro-3-(trifluoromethyl)phenyl)carbamoyl)bicyclo[2.2.1]heptan-2-yl)-5-((6S,7aR)-6-(hydroxymethyl)-5,6,7,7a-tetrahydropyrrolo [1,2-d][1,2,4]oxadiazo 1-3-yl)-2-methoxynicotinamide] | 2.1 |
| COc1cnccc1C(=O)N[C@@H]1C2CCC(C2=C(C)C)[C@@H]1C(=O)Nc1ccc(F)c(C(F)(F)F)c1 (stereo partly drawn) [Example 6, N-[(2R,3S)-3-{[4-fluoro-3-(trifluoromethyl)phenyl]carbamoyl}-7-(propan-2-ylidene)bicyclo [2.2.1]heptan-2-yl]-3-methoxypyridine-4-carboxamide] | 1100 |
| COc1ncc(C(=O)N2CC(S(C)(=O)=O)C2)cc1C(=O)N[C@H]1[C@@H](C(=O)N[C@H](C)C2(C)CC2)[C@H]2CC[C@@H]1/C2=C\C1CC1 [Example 151, N-[(1R,2R,4R,7Z)-7-(cyclopropyl-methylidene)-3-{[(1R)-1-(1-methylcyclopropyl)ethyl]carbamoyl}bicyclo[2.2.1]heptan-2-yl]-5-(3-methanesulfonylazetidine-1-carbonyl)-2-methoxypyridine-3-carboxamide] | 3.5 |
| COc1ncc(C2=NOC3CC(C(O)C(F)(F)F)CC23)cc1C(=O)N[C@H]1[C@@H](C(=O)Nc2ccc(F)c(C(F)(F)F)c2)[C@H]2CC[C@@H]1/C2=C\C1CC1 (stereo partly drawn) [Example 131, N-((1R,2R,3S,4R,Z)-7-(cyclopropyl-methylene)-3-((4-fluoro-3-(trifluoromethyl)phenyl)carbamoyl)bicyclo[2.2.1]heptan-2-yl)-2-methoxy-5-(5-(2,2,2-trifluoro-1-hydroxyethyl)-3a,5,6,6a-tetrahydro-4H-cyclopenta[d]isoxazol-3-yl)nicotinamide] | 1.6 |
| COc1ncc(C2=NOC3CC(CO)CC23)cc1C(=O)N[C@@H]1C2CCC(/C2=C/C2CC2)[C@@H]1C(=O)Nc1ccc(F)c(C(F)(F)F)c1 (single isomer, unassigned) [Example 70] | 2.3 |
| COc1ncc(C2=NOC3COCC23)cc1C(=O)N[C@H]1[C@@H](C(=O)N[C@H](C)C2(C)CC2)[C@H]2CC[C@@H]1/C2=C\C1CC1 (stereo partly drawn) [Example 137, N-((1R,2R,3S,4R,Z)-7-(cyclopropyl-methylene)-3-(((R)-1-(1-methylcyclopropyl)ethyl)carbamoyl)bicyclo[2.2.1]heptan-2-yl)-2-methoxy-5-(3a,4,6,6a-tetrahydrofuro[3,4-d]isoxazol-3-yl)nicotinamide] | 3 |
| COc1ccc(-c2cc(C(=O)O)ccc2F)nc1C(=O)N[C@@H]1C2CCC(C2=C(C)C)[C@@H]1C(=O)Nc1ccc(F)c(C(F)(F)F)c1 (stereo partly drawn) [Example 23, 4-Fluoro-3-(6-{[(2R,3S)-3-{[4-fluoro-3-(trifluoromethyl)phenyl]carbamoyl}-7-(propan-2-ylidene)bicyclo [2.2.1]heptan-2-yl]carbamoyl}-5-methoxypyridin-2-yl)benzoic acid] | 2400 |
| O=C(N[C@@H]1C2CCC(/C2=C/C(F)(F)F)[C@@H]1C(=O)Nc1ccc(F)c(C(F)(F)F)c1)c1cnn2c(C(F)F)cc(Cl)cc12 (stereo partly drawn) [Example 13] | 1700 |
| COc1cccc2cc(C(=O)N[C@@H]3C4CCC(/C4=C/C(F)(F)F)[C@@H]3C(=O)Nc3ccc(F)c(C(F)(F)F)c3)cnc12 (stereo partly drawn) [Example 14, N-[(2R,3S,7Z)-3-{[4-fluoro-3-(trifluoromethyl)phenyl]carbamoyl}-7-(2,2,2-trifluoroethylidene)bicyclo[2.2.1]heptan-2-yl]-8-methoxyquinoline-3-carboxamide] | 2900 |
